Assay results from BindingDB's records for doi:10.1046/j.1471-4159.2000.751294.x (University of California, 2000).

Assay: Displacement of [3H]IMI from nicotinic acetylcholine receptor in Aphis craccivora (cowpea aphid) whole body membrane after 90 min by filter binding assay

| SMILES | IC50 |
| --- | --- |
| C/N=C(\NCc1ccc(Cl)nc1)N[N+](=O)[O-] | 4.4 nM |
| O=[N+]([O-])/N=C1\NCOCN1Cc1ccc(Cl)nc1 | 15 nM |
| O=[N+]([O-])/N=C1\NCOCN1Cc1cnc(Cl)s1 [DESMETHYLTHIAMETHOXAM] | 11 nM |
| O=[N+]([O-])/N=C1\NCCN1Cc1cnc(Cl)s1 [IMIDACLOTHIZ] | 8.2 nM |
